# Results reported in US12077495B2 (priority 2018, dated 2024).
# Assays:
# [1] = system: wild-type and GABAB receptor knock-out mice; assay: Temperature recording (hypothermia) in mice; assay type: in vivo; settings: 500 mg/kg i.p.; wild-type or GABAB knock-out mice
# Procedure: Mice were pre-treated with saline injections (0.9% saline) i.p. for 4 days prior to the experiment to minimize stress on the day of the experiment. Experiments were conducted in a quiet room, in which mice were left undisturbed for at least two hrs prior to the experiment. After the i.p. injections, mice were left in their home cages for two hrs, had core body temperature recorded, and were then euthanized. The core body temperature was measured rectally by a thermometer (model DM 852; ELLAB Instruments; Copenhagen, Denmark) via a lubricated thermistor probe (model PRA-22002-A, 2.2 mm diameter; ELLAB Instruments). Mice were held at the base of the tail and measured until a stable temperature measurement was obtained.
# By contrast, compound A had no effect on hypothermia in either wild-type or knock-out mice.
# [2] = system: permanent middle cerebral artery occlusion in C57BL/6J mice; assay: pMCAO model, behavioural assessment (rotarod, grip strength, Hargreaves); assay type: in vivo; settings: 175 mg/kg 30 min after pMCAO
# Procedure: To assess sensory-motor impairment, animals were tested in the rotarod, grip strength and Hargreaves tests 2-3 days post-stroke.
# The rotarod (LE 8200, Panlab) measures motor performance in rodents by assessing the time during which the animal remains on a rotating rod. The rod rotation accelerates from 0 to 40 rounds per min (rpm) over a time period of 5 min 48 hrs post-stroke, mice were tested in four repeating trials with a 20 min interval (resting time). Prior to surgery, mice were pretrained to stay on the rod for 30 s at 4 rpm. The grip strength meter (BIO-GT-3, BIOSEB) allowed the study of neuromuscular functions in mice by determining the maximum force that is required to make the mouse release its grip.
# The mouse is allowed to grasp a metal grid and then pulled backwards in the horizontal plane. The force applied to the grid is recorded as the peak tension. Individual (right and left) and total (both) front paw grip strength was measured before (baseline) and 3 days after pMCAO. Each mouse was tested in five sequential trials and the highest grip strength was recorded as the score. Thermal hyperalgesia (hind paw withdrawal from a normally innocuous heat source) was tested with a Hargreaves test setup. […] The lowest and highest reflex latency scores were discarded and the average for left and right was calculated and plotted.
# Compound A (175 mg/kg) was administered to mice 30 min after induction of a focal stroke via a permanent occlusion of the middle cerebral artery and compared to saline-treated animals and both motor- and sensory impairment was investigated using rotarod, grip strength and Hargreaves tests.
# [3] = target: T1, CAMK2A pThr286 autophosphorylation (Mus musculus, UniProt P11798); assay: pThr286 autophosphorylation in dissected mouse cortex after photothrombosis (Western blot); assay type: in vivo, mice; settings: 175 mg/kg i.p.; cortex tissue; pThr286 normalized to total CAMK2A
# T1 construct: cortical tissue isolated from mice subjected to photothrombotic injury; from tissue; host or cells: mouse cortex (infarct core), C57BL/6J, after in vivo dosing
# Procedure: Along with the standard protocol for photothrombotic focal ischemia, mice were treated with either saline or 175 mg/kg A (i.p.) 30 min after the injury. Three hours after the injury, mice were sacrificed, brains were dissected out and immediately submerged in ice-cold PBS supplemented with 1% phosphatase and protease inhibitors (Phosphatase inhibitor cocktail 3 #P0044 (Sigma), Phosphatase inhibitor cocktail 2 #P5726 (Sigma) and complete EDTA protease inhibitors (Roche) for 5 min. Cortex tissue from the infarct core region (i.e. 1.5 mm right of bregma including the primary motor cortex with a diameter of 2 mm) was dissected and snap-frozen on dry ice. Tissue homogenization was performed using 1×RIPA buffer supplemented with phosphatase and protease inhibitors and a Bullet Blender. Autophosphorylation was assessed by Western blot analysis, comparing the total level of CAMK2A (quantified using anti-CAMK2A, #NB100-1983, Novus Biologicals) to the level of phosphorylated CAMK2A (pThr286: #12716S, Cell Signalling Technology; goat anti-rabbit HRP: #PI-1000 X0126, Vector). […]
# To this end, sham mice or mice were treated with either saline or 175 mg/kg A (i.p.) 3 hrs after the injury. […] Autophosphorylation was assessed by Western blot analysis and levels of pThr286 CAMK2A normalized to total CAMK2A to detect changes in autophosphorylation.
# T1 sequence (P11798 whole entry): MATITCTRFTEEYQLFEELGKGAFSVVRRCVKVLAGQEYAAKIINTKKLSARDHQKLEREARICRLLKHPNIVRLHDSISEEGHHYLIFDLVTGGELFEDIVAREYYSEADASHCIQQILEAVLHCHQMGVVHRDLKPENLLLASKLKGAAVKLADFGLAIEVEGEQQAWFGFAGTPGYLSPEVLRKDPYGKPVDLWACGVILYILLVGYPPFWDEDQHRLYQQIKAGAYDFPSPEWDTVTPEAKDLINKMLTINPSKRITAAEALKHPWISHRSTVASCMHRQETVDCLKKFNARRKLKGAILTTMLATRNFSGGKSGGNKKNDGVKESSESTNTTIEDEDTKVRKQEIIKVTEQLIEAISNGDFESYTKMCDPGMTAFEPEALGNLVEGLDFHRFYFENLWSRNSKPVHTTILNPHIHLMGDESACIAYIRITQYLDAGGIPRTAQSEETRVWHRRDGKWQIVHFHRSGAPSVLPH
compound,measurement,setting,value
"O=C(O)C1=CC(O)CC1 (centres unmarked) [Compound A, 3-hydroxycyclopent-1-enecarboxylic acid]",effect on body temperature (hypothermia),[1],no effect
same,"Hargreaves test, increased response time in affected forelimb",[2],not evident
same,"rotarod test, learning","[2]; 48 hrs post-stroke, T1 to T2",steeper learning curve
same,grip strength deficit in affected fore limb,[2]; three days after stroke,did not demonstrate any deficit
same,decrease in pThr286 autophosphorylation,[3],73%
